Data on 23 compounds can be found in ChEMBL document CHEMBL4296182, “CO-ADD screening of NIH NCI Diversity Set V”.

One test deals with Candida albicans. Briefly: microbe, parasite or virus in culture. As to conditions: ATCC 90028, ASSAY_TEST Inhibition of Fungal Growth, detection method Absorption (OD530), plate type 384well, NBS, CORNING #3640.
The test system of a further test is Escherichia coli. As to the kind of experiment: microbe, parasite or virus in culture. The conditions noted are these: ATCC 25922, 18 h, ASSAY_TEST Inhibition of Bacterial Growth, detection method Absorption (OD600), MEDIA CAMHB, plate type 384well, NBS, CORNING #3640.
Another test relates to HEK293. Briefly: cells. As to conditions: Homo sapiens, ATCC CRL1573, HEK293; ASSAY_TEST Inhibition of Cell Viability; detection method Resazurin; Fluorescence (ex560/em590); MEDIA DMEM with 10% FBS; plate type 384well; TC; CORNING #3712; time 18 hr. The format is functional. Background: Alamar Blue is a resazurin reagent that responds to reducing activity.
For the next test, the system named is Klebsiella pneumoniae. As to the kind of experiment: microbe, parasite or virus in culture. The conditions noted are these: ATCC 700603, 18 h, ASSAY_TEST Inhibition of Bacterial Growth, detection method Absorption (OD600), MEDIA CAMHB, plate type 384well, NBS, CORNING #3640.
Another test concerns Acinetobacter baumannii. Briefly: microbe, parasite or virus in culture. As to conditions: ATCC 19606, 18 h, ASSAY_TEST Inhibition of Bacterial Growth, detection method Absorption (OD600), MEDIA CAMHB, plate type 384well, NBS, CORNING #3640.
The subject of the next test is Staphylococcus aureus. Briefly: microbe, parasite or virus in culture. The conditions noted are these: ATCC 43300, 18 h, ASSAY_TEST Inhibition of Bacterial Growth, detection method Absorption (OD600), MEDIA CAMHB, plate type 384well, NBS, CORNING #3640.
For another test, the system named is Pseudomonas aeruginosa. As to the kind of experiment: microbe, parasite or virus in culture. As to conditions: ATCC 27853, 18 h, ASSAY_TEST Inhibition of Bacterial Growth, detection method Absorption (OD600), MEDIA CAMHB, plate type 384well, NBS, CORNING #3640.

Values after ≈ are worked out from the molar mass of the structure shown. Where only a bound is given, the exact number is not on record here.

Description for Acinetobacter baumannii: Antibacterial activity against Acinetobacter baumannii ATCC 19606 (CO-ADD:GN_034); MIC in CAMBH media using NBS plates, by OD600
Description for Candida albicans: Antifungal activity against Candida albicans ATCC 90028 (CO-ADD:FG_001); MIC in YNB media using NBS plates, by OD630
Description for Cryptococcus neoformans: Antifungal activity against Cryptococcus neoformans H99 ATCC 208821 (CO-ADD:FG_002); MIC in YNB media using NBS plates, by Resazurin OD(600-570)
Description for Escherichia coli: Antibacterial activity against Escherichia coli ATCC 25922 (CO-ADD:GN_001); MIC in CAMBH media using NBS plates, by OD(600)
Description for Klebsiella pneumoniae: Antibacterial activity against Klebsiella pneumoniae MDR ATCC 70063 (CO-ADD:GN_003); MIC in CAMBH media using NBS plates, by OD(600)
Description for Pseudomonas aeruginosa: Antibacterial activity against Pseudomonas aeruginosa ATCC 27853 (CO-ADD:GN_042); MIC in CAMBH media using NBS plates, by OD(600)
Description for Staphylococcus aureus: Antibacterial activity against Staphylococcus aureus MRSA ATCC 43300 (CO-ADD:GP_020); MIC in CAMBH media, using NBS plates, by OD(600)

For `Nc1ncnc2c1ncn2C1OC(COS(N)(=O)=O)C(O)C1O` (centres undefined), the MIC with Candida albicans is above 10 µM; in the test with Escherichia coli it was above 10 µM; with Klebsiella pneumoniae it was above 10 µM; against Acinetobacter baumannii, above 10 µM; in the test with Staphylococcus aureus, 5 µM (≈ 1.73 µg/mL); with Cryptococcus neoformans, above 10 µM. Also, the MIC against Pseudomonas aeruginosa was above 10 µM. The CC50 – broadly, the concentration at which the toxic effect on the cells reaches its halfway point – in the test with HEK293 worked out at 0.227 µM.
With `Oc1cccc2nc3ccccc3nc12`, the MIC against Candida albicans, against Escherichia coli, against Klebsiella pneumoniae, in the test with Acinetobacter baumannii, in the test on Staphylococcus aureus and against Cryptococcus neoformans was above 10 µM each time. The MIC against Pseudomonas aeruginosa is above 10 µM. In addition, the CC50 in the test on HEK293 is above 10 µM.
Turning to `Cc1c(-c2ccccc2)n(O)[n+]([O-])c1-c1ccccc1`, the MIC against Candida albicans, in the test with Escherichia coli, against Klebsiella pneumoniae, against Acinetobacter baumannii, in the test on Staphylococcus aureus and in the test with Cryptococcus neoformans was above 10 µM in each case. This compound also yielded an MIC in the test with Pseudomonas aeruginosa above 10 µM. For the same compound, the CC50 with HEK293 is above 10 µM.
`O=C(Nc1ccc(C2=NCCN2)cc1)c1ccc(C(=O)Nc2ccc(C3=NCCN3)cc2)c(Cl)c1`: the MIC against Candida albicans, against Escherichia coli, against Klebsiella pneumoniae, in the test on Acinetobacter baumannii, in the test with Staphylococcus aureus and in the test with Cryptococcus neoformans was above 10 µM in each case. In the test on Pseudomonas aeruginosa, this compound had an MIC above 10 µM. In the test on HEK293, this compound showed a CC50 above 10 µM.
As to `COC12C(COC(N)=O)C3=C(C(=O)C(C)=C(N)C3=O)N1CC1C2N1C` (centres undefined), the MIC in the test on Candida albicans is above 10 µM; against Escherichia coli, 5 µM (≈ 1.74 µg/mL); in the test with Klebsiella pneumoniae it was above 10 µM; against Acinetobacter baumannii, above 10 µM; in the test with Staphylococcus aureus, 0.156 µM (≈ 0.0544 µg/mL); in the test with Cryptococcus neoformans, above 10 µM. This compound returned an MIC with Pseudomonas aeruginosa above 10 µM. In addition, the CC50 in the test with HEK293 was above 10 µM.
Take `O=[N+]([O-])c1cc(F)c2cccnc2c1O`: the MIC in the test on Candida albicans was 10 µM (≈ 2.08 µg/mL); with Escherichia coli, above 10 µM; against Klebsiella pneumoniae, above 10 µM; in the test on Acinetobacter baumannii, above 10 µM; with Staphylococcus aureus, above 10 µM; with Cryptococcus neoformans, 10 µM (≈ 2.08 µg/mL). For the same compound, the MIC in the test on Pseudomonas aeruginosa is above 10 µM. Also, the cytotoxic concentration (CC50) in the test with HEK293 was above 10 µM.
For the compound `Cc1cc2nc(CS)[nH]c2cc1C`, the MIC with Candida albicans, in the test with Escherichia coli, against Klebsiella pneumoniae, with Acinetobacter baumannii, in the test with Staphylococcus aureus and in the test on Cryptococcus neoformans was above 10 µM in each case. In the test with Pseudomonas aeruginosa, this compound had an MIC above 10 µM. Further, the half-maximal cytotoxic concentration (CC50) in the test with HEK293 is above 10 µM.
On to `CCN(CC)c1ccc(C(=C2C=CC(=[N+](CC)CC)C=C2)c2ccc(N(CC)CC)cc2)cc1`, for which the MIC was at most 0.0781 µM in the test with Candida albicans; above 10 µM with Escherichia coli; above 10 µM in the test on Klebsiella pneumoniae; above 10 µM with Acinetobacter baumannii; at most 0.0781 µM against Staphylococcus aureus; 1.25 µM against Cryptococcus neoformans. In the test on Pseudomonas aeruginosa, this compound registered an MIC of 2.5 µM. Also, the CC50 in the test on HEK293 was found to be 1.47 µM.
On to `CN1CCN(c2ccc([N+](=O)[O-])c3no[n+]([O-])c23)CC1`, for which the MIC against Candida albicans is above 10 µM; against Escherichia coli, above 10 µM; in the test with Klebsiella pneumoniae, above 10 µM; with Acinetobacter baumannii, above 10 µM; in the test on Staphylococcus aureus it was 2.5 µM (≈ 0.698 µg/mL); against Cryptococcus neoformans it was above 10 µM. Besides, the MIC against Pseudomonas aeruginosa is above 10 µM. In the test with HEK293, the CC50 was determined as 0.755 µM.
Consider `Cn1cnc([N+](=O)[O-])c1S(=O)(=O)Oc1cccc2ccccc12`, for which the MIC is at most 0.0781 µM in the test on Candida albicans; above 10 µM in the test on Escherichia coli; above 10 µM against Klebsiella pneumoniae; above 10 µM with Acinetobacter baumannii; above 10 µM in the test with Staphylococcus aureus; above 10 µM with Cryptococcus neoformans. Further, the MIC with Pseudomonas aeruginosa was above 10 µM. The compound further came in with a CC50 in the test with HEK293 of 8.21 µM.
As to `CC1=C(O)C(=O)C=C2C1=CC=C1[C@@]2(C)CC[C@@]2(C)[C@@H]3C[C@](C)(C(=O)O)CC[C@]3(C)CC[C@]12C` [CELASTROL], the MIC against Candida albicans was above 10 µM; against Escherichia coli, above 10 µM; with Klebsiella pneumoniae, above 10 µM; against Acinetobacter baumannii, above 10 µM; against Staphylococcus aureus, 2.5 µM (≈ 1.13 µg/mL); against Cryptococcus neoformans, above 10 µM. In the test on Pseudomonas aeruginosa, this compound yielded an MIC above 10 µM. The compound further returned a CC50 in the test with HEK293 of 0.837 µM.
For `Cc1c(N2CCCC2)cc2c(c1NC(=O)c1ccccc1Cl)C(C)(C)CC2(C)C`, the MIC against Candida albicans, in the test with Escherichia coli, against Klebsiella pneumoniae, in the test with Acinetobacter baumannii, with Staphylococcus aureus and against Cryptococcus neoformans was above 10 µM each time. Further, in the test with Pseudomonas aeruginosa, the MIC is above 10 µM. In the test on HEK293, this compound showed a CC50 above 10 µM.
`Nc1nc(N)c2c(ccc3[nH]ccc32)n1`: the MIC with Candida albicans, in the test on Escherichia coli, in the test with Klebsiella pneumoniae, in the test with Acinetobacter baumannii, in the test with Staphylococcus aureus and in the test with Cryptococcus neoformans was above 10 µM each time. Further, the MIC against Pseudomonas aeruginosa is above 10 µM. Also, in the test on HEK293, the CC50 was above 10 µM.
Consider `COC1CC(C)C(OC)c2cc(O)cc(c2O)NC(=O)/C(C)=C/C=C\C(C)C(OC(N)=O)/C(C)=C\C(C)C1OC` (centres undefined), for which the MIC with Candida albicans, in the test with Escherichia coli, against Klebsiella pneumoniae, with Acinetobacter baumannii, against Staphylococcus aureus and against Cryptococcus neoformans was above 10 µM throughout. Also, the MIC against Pseudomonas aeruginosa is above 10 µM. This compound yielded a CC50 with HEK293 of 1.09 µM.
For the compound `O=C1C(Cl)=C(NCCc2ccccc2)C(=O)c2ccccc21`, the MIC in the test with Candida albicans was 0.625 µM (≈ 0.195 µg/mL); with Escherichia coli, above 10 µM; in the test with Klebsiella pneumoniae it was above 10 µM; against Acinetobacter baumannii, above 10 µM; in the test on Staphylococcus aureus it was above 10 µM; in the test on Cryptococcus neoformans, 0.625 µM (≈ 0.195 µg/mL). This compound yielded an MIC in the test on Pseudomonas aeruginosa above 10 µM. Also, in the test with HEK293, the CC50 was above 10 µM.
In the case of `CSc1nc(C)c(Br)c(N2CC2)n1`, the MIC against Candida albicans, against Escherichia coli, in the test on Klebsiella pneumoniae, against Acinetobacter baumannii, with Staphylococcus aureus and against Cryptococcus neoformans was above 10 µM in each case. Moreover, in the test on Pseudomonas aeruginosa, the MIC is above 10 µM. The compound further came in with a cytotoxic concentration (CC50) with HEK293 above 10 µM.
As for `O=C(Nc1ccc(Nc2ccncc2)cc1)c1ccc(Nc2ccnc3ccc([N+](=O)[O-])cc23)cc1`, the MIC was above 10 µM with Candida albicans; above 10 µM against Escherichia coli; above 10 µM in the test on Klebsiella pneumoniae; above 10 µM in the test on Acinetobacter baumannii; above 10 µM in the test on Staphylococcus aureus; 2.5 µM (≈ 1.19 µg/mL) with Cryptococcus neoformans. The MIC against Pseudomonas aeruginosa is above 10 µM. The CC50 in the test with HEK293 is above 10 µM.
As for `Cc1ccc([S+]([O-])c2ccc([N+](=O)[O-])c3nonc23)cc1` (centres undefined), the MIC against Candida albicans, against Escherichia coli, against Klebsiella pneumoniae, with Acinetobacter baumannii, against Staphylococcus aureus and against Cryptococcus neoformans was above 10 µM throughout. Also, the MIC against Pseudomonas aeruginosa is above 10 µM. In addition, the CC50 in the test on HEK293 is above 10 µM.
As for `COC(=O)C1C(O)C(C)C(O)C(C)/C=C\C=C(/C)C(=O)Nc2c(C)c(OC(C)=O)c3c(c2O)C(=O)C(C)=C2OCOC(=C23)/C(C)=C/C(C)(O)C(O)C(C)C1O` (centres undefined), the MIC against Candida albicans was above 10 µM; in the test with Escherichia coli, above 10 µM; against Klebsiella pneumoniae, above 10 µM; with Acinetobacter baumannii, above 10 µM; against Staphylococcus aureus it was 1.25 µM (≈ 0.962 µg/mL); with Cryptococcus neoformans, above 10 µM. This compound also had an MIC against Pseudomonas aeruginosa above 10 µM. The compound further registered a half-maximal cytotoxic concentration (CC50) with HEK293 of 9.11 µM.
Turning to `N=C(Nc1nc(-c2ccccn2)cc2ccccc12)c1ccccn1`, the MIC against Candida albicans was 5 µM (≈ 1.63 µg/mL); with Escherichia coli, above 10 µM; in the test on Klebsiella pneumoniae, above 10 µM; with Acinetobacter baumannii, above 10 µM; against Staphylococcus aureus, above 10 µM; in the test with Cryptococcus neoformans, 10 µM (≈ 3.25 µg/mL). This compound also yielded an MIC in the test on Pseudomonas aeruginosa above 10 µM. In the test with HEK293, this compound yielded a CC50 above 10 µM.
As for `Cc1ccc2ccc(C#N)cc2c1O`, the MIC in the test on Candida albicans, against Escherichia coli, with Klebsiella pneumoniae, with Acinetobacter baumannii, with Staphylococcus aureus and against Cryptococcus neoformans was above 10 µM in each case. In the test on Pseudomonas aeruginosa, the MIC is above 10 µM. The CC50 in the test with HEK293 was above 10 µM.
As to `CC(C)c1ccc2c(c1)CCC1C(C)(CN)CCCC21C` (centres undefined), the MIC against Candida albicans, against Escherichia coli, against Klebsiella pneumoniae, in the test with Acinetobacter baumannii, against Staphylococcus aureus and with Cryptococcus neoformans was above 10 µM in each case. The MIC against Pseudomonas aeruginosa is above 10 µM. Besides, in the test on HEK293, the CC50 was 8.3 µM.
For `O=[N+]([O-])c1cc([N+](=O)[O-])c2cccnc2c1O`, the MIC was 10 µM (≈ 2.35 µg/mL) in the test with Candida albicans; above 10 µM against Escherichia coli; above 10 µM against Klebsiella pneumoniae; above 10 µM against Acinetobacter baumannii; above 10 µM in the test on Staphylococcus aureus; above 10 µM in the test on Cryptococcus neoformans. Further, the MIC against Pseudomonas aeruginosa is above 10 µM. For the same compound, in the test on HEK293, the CC50 is above 10 µM.
